Here are results for two compounds from patent US20090325954A1, “2-BENZIMIDAZOLYL-6-MORPHOLINO-4-PHENYLPYRIMIDINE DERIVATIVES AS PI3K AND MTOR INHIBITORS FOR THE TREATMENT OF PROLIFERATIVE DISORDERS” (priority 2006, published 2009).

Broadly, the pIC50 is −log10 of the IC50, conventionally taken in molar units.

pIC50: −log10 of the molar value.

One assay concerns the target T1, p110α Type Ia human PI3K (Homo sapiens, UniProt P42336).
T1 construct: full length DNA of each of the p110α, p110β and […] Type Ia human PI3K p110 isoforms; 6-His; made in house
The assay is described as follows: In vitro PI3K enzyme assay (AlphaScreen), Test (a). The format is biochemical. Particulars: read-out: IC50 versus p110α Type Ia human PI3K. From the text:
The assay used AlphaScreen technology (Gray et al., Analytical Biochemistry, 2003, 313: 234-245) to determine the ability of test compounds to inhibit phosphorylation by recombinant Type I PI3K enzymes of the lipid PI(4,5)P2.
DNA fragments encoding human PI3K catalytic and regulatory subunits were isolated from cDNA libraries using standard molecular biology and PCR cloning techniques. The selected DNA fragments were used to generate baculovirus expression vectors. In particular, full length DNA of each of the p110α, p110β and […] Type Ia human PI3K p110 isoforms (EMBL Accession Nos. HSU79143, S67334, Y10055 for p110a, p110β and p110δ respectively) were sub-cloned into a pDEST10 vector (Invitrogen Limited, Fountain Drive, Paisley, UK). The vector is a Gateway-adapted version of Fastbac1 containing a 6-His epitope tag. […]
Biotinylated-DiC8-PI(3,4,5)P3 (50 nM; Cell Signals Inc., Catalogue No. 107), recombinant purified GST-Grp1 PH protein (2.5 nM) and AlphaScreen Anti-GST donor and acceptor beads (100 ng; Packard Bioscience Limited, Station Road, Pangbourne, Berkshire, UK, Catalogue No. 6760603M) were added and the assay plates were left for about 5 to 20 hours at room temperature in the dark. The resultant signals arising from laser light excitation at […] were read using a Packard AlphaQuest instrument. […]
A general note: In Alpha technology, singlet oxygen from a donor bead excites a nearby acceptor bead.

The subject of assay [1] is phosphorylation of Serine 473 in Akt. Put plainly: In vitro phospho-Ser473 Akt assay in MDA-MB-468 cells, Test (c). It counts as cell-based. As to conditions: Homo sapiens, read-out: IC50, inhibition of phosphorylation of Serine 473 in Akt. The method, then: This assay determines the ability of test compounds to inhibit phosphorylation of Serine 473 in Akt as assessed using Acumen Explorer technology (TTP LabTech Limited, Royston, Herts, SG8 6EE, UK), a plate reader that can be used to rapidly quantitate features of images generated by laser-scanning.
A MDA-MB-468 human breast adenocarcinoma cell line (LGC Promochem, Teddington, Middlesex, UK, Catalogue No. HTB-132) was routinely maintained at 37° C. with 5% CO2 up to a confluency of 70-90% in DMEM containing 10% FCS and 1% L-glutamine.
For the assay, the cells were detached from the culture flask using ‘Accutase’ (Innovative Cell Technologies Inc., San Diego, Calif., USA; Catalogue No. AT104) using standard tissue culture methods and resuspended in media to give 5.5×10^4 cells per ml. Aliquots (90 μl) were seeded into each of the inner 60 wells of a black ‘Costar’ 96-well plate (Corning Inc., NY, USA; Catalogue No. 3904) to give a density of ˜5000 cells per well. Aliquots (90 μl) of culture media were placed in the outer wells to prevent edge effects. [An alternative cell handling procedure involved the maintenance of the cells in a ‘SelecT’ robotic device (The Automation Partnership, Royston, Herts SG8 5WY, UK). Cells were resuspended in media to give 5×10^4 cells per ml. Aliquots (100 μl) were seeded into the wells of a black ‘Costar’ 96-well plate.] […]

T1 sequence (P42336 whole entry, canonical isoform): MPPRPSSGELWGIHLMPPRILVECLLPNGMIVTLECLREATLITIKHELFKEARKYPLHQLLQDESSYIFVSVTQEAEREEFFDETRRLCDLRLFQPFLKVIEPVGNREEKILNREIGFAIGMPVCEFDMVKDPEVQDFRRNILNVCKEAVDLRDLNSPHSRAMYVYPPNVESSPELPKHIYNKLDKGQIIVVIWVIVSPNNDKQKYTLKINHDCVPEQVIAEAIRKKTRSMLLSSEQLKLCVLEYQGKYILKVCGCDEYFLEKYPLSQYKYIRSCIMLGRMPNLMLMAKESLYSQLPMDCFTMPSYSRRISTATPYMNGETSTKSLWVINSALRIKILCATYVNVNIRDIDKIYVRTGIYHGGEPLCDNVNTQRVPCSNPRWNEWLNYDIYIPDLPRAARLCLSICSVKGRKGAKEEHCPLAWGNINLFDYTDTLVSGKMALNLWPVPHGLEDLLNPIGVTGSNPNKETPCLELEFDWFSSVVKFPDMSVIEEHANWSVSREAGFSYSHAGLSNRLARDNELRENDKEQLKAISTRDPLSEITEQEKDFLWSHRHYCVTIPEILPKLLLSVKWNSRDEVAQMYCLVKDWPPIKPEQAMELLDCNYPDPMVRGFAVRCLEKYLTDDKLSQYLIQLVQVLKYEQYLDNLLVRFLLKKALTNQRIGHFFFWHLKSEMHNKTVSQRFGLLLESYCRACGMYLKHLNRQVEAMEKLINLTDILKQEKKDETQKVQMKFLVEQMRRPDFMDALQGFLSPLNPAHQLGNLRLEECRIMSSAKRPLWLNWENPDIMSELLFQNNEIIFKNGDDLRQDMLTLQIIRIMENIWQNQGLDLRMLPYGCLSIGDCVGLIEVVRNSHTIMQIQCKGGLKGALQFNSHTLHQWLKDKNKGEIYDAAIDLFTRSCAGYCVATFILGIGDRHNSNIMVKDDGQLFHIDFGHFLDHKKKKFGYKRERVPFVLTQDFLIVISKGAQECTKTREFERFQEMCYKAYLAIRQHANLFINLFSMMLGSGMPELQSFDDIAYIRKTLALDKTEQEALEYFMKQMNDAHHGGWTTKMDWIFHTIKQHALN
T1 sequence (P27986 whole entry partner, canonical isoform): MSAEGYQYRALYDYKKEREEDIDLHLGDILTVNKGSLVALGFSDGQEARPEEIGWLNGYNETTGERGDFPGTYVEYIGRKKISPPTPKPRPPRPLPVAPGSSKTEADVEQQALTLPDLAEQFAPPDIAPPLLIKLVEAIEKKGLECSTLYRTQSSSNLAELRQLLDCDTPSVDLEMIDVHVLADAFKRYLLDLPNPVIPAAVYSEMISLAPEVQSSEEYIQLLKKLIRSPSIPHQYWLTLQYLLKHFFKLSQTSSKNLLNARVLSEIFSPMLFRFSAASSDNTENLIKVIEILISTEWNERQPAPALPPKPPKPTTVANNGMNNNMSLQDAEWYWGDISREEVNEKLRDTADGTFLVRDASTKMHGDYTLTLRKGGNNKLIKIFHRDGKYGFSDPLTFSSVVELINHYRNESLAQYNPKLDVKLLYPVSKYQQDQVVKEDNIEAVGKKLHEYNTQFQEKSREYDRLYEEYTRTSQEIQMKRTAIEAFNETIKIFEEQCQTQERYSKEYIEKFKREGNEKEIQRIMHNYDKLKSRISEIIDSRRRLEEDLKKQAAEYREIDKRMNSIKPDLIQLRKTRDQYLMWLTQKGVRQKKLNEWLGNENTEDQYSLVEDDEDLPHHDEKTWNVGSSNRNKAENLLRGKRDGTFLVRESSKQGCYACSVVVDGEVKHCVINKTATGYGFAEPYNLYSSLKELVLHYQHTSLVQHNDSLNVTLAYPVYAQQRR

As to `CNCC(=O)Nc1ccc(-c2cc(N3CCOCC3)nc(-n3c(C(F)F)nc4ccccc43)n2)cc1` [Example 5, 2-(2-difluoromethylbenzimidazol-1-yl)-6-morpholino-4-(4-sarcosylaminophenyl)pyrimidine], the results for the pIC50 (on p110α Type Ia human PI3K; in assay [1]) were approximately 6.52 and approximately 7.70, respectively.
On the same counts, the results for `CN(C)CCNC(=O)c1ccc(-c2cc(N3CCOCC3)nc(-n3c(C(F)F)nc4ccccc43)n2)cc1` [Example 9, 2-(2-difluoromethylbenzimidazol-1-yl)-4-{4-[N-(2-dimethylaminoethyl)carbamoyl]phenyl}-6-morpholinopyrimidine] are approximately 6.52 and approximately 7.00.
